Assay [1] concerns adjuvant-induced arthritis in rats. Briefly: Established Adjuvant-Induced Arthritis in Rats. Format: in vivo, Charles River Lewis male rats. Conditions: for ED50: Rattus norvegicus, read-out: Adjuvant Arthritic ED50; for percent reduction in paw volume: at 9 mg/kg.
Assay [2] relates to phenylquinone-induced writhing in mice. Briefly: Phenylquinone Writhing Test. Format: in vivo, female white mice. Conditions: Mus musculus, read-out: Phenylquinone Writhing (PQW) ED50. How it is done: Phenylquinone Writhing Test
A test compound suspended in 1% methylcellulose was given orally to fasted (17-21 hours) female white mice, 5-20 animals per double blind test. Aqueous (0.01% phenyl-p-benzoquinone) phenylquinone, 0.20 ml per mouse, was injected intraperitoneally 6 minutes before observations were begun.
Background: An intraperitoneal irritant provokes the stretching counted in writhing tests.

Where [3] appears, read: ED50% decrease from control paw volume (uninjected, left hind paw), oral, daily for 7 days, read one day after last dose.
Setting [4] is: effective analgesic dose for 50% of the mice, oral, 0.01% phenylquinone 0.20 ml i.p.
Where [5] appears, read: oral, daily for 7 days, read one day after last dose.

The source of these data is patent US4477463A, “Antiinflammatory and/or analgesic 1-alkyl-4,5-diaryl-2-fluoroalkyl-1H-pyrroles” (E. I. Du Pont de Nemours and Company, priority 1982, dated 1984).

Read-outs that look alike come from different tables or passages of the source. Where only a bound is given, the exact number is not on record here.

As to `CC(=O)Oc1ccccc1C(=O)O` [Aspirin, reference compound], the ED50 (as a rule, the dose that gives a 50% effect, or the effect in half of the subjects) was 305 mg/kg in assay [1] (po) and 135 mg/kg in assay [2] (po).
Consider `CC(C)Cc1ccc(C(C)C(=O)O)cc1` (stereo not shown) [Ibuprofen, reference compound], for which the values for the ED50 in assay [1] (setting [3]) and in assay [2] (setting [4]) were 100 mg/kg and 10 mg/kg, respectively.
Taken in the same sequence, the figures for `CSc1ccc(-c2cc(C(F)(F)F)n(C)c2-c2ccc(SC)cc2)cc1` [Example 8, 1-methyl-4,5-bis(4-methylthiophenyl)-2-trifluoromethyl-1H-pyrrole] were 1.8 mg/kg and greater than 108 mg/kg.
Taken in the same sequence, the figures for `CSc1ccc(-c2c(-c3ccc(F)cc3)cc(C(F)(F)F)n2C)cc1` [Example 6, 4-(4-fluorophenyl)-1-methyl-5-(4-methylthiophenyl)-2-trifluoromethyl-1H-pyrrole] were 1.8 mg/kg and 16 mg/kg.
For the compound `Cn1c(C(F)(F)F)cc(-c2ccc(Cl)cc2)c1-c1ccc(Cl)cc1` [Example 4], in assay [1] (setting [5]), the “percent reduction in paw volume” value turned out to be 29%.
For the compound `COc1ccc2c(c1)c(CC(=O)O)c(C)n2C(=O)c1ccc(Cl)cc1` [Indomethacin, reference compound], the values for the ED50 in assay [1] (po) and in assay [2] (po) were 0.3 mg/kg and 0.35 mg/kg, respectively.
Regarding `Cn1c(C(F)(F)F)cc(-c2ccc(F)cc2)c1-c1ccc(S(C)(=O)=O)cc1` [Example 7, 4-(4-fluorophenyl)-1-methyl-5-(4-methylsulfonylphenyl)-2-trifluoromethyl-1H-pyrrole], the ED50 in assay [1] (setting [3]) is 3.5 mg/kg.
Consider `CCn1c(C(F)(F)F)cc(-c2ccc(OC)cc2)c1-c1ccc(OC)cc1` [Example 3], for which the ED50 in assay [1] (setting [3]) turned out to be 18 mg/kg; in assay [2] (setting [4]) it was 47 mg/kg.
Taken in the same sequence, the figures for `CCCCC1C(=O)N(c2ccccc2)N(c2ccccc2)C1=O` [Phenylbutazone, reference compound] were 10 mg/kg and 80 mg/kg.
Regarding `Cc1ccc(-c2cc(C(F)(F)F)n(C)c2-c2ccc(C)cc2)cc1` [Example 5], the “percent reduction in paw volume” value in assay [1] (setting [5]) came to 28%. For the same compound, in assay [2] (setting [4]), the ED50 amounted to 18 mg/kg.
For `COc1ccc(-c2cc(C(F)(F)C(F)(F)F)n(C)c2-c2ccc(OC)cc2)cc1` [Example 2, 4,5-bis(4-methoxyphenyl)-1-methyl-2-pentafluoroethyl-1H-pyrrole], the “percent reduction in paw volume” value in assay [1] (setting [5]) is 32%. The ED50 in assay [2] (setting [4]) worked out at 1.8 mg/kg.
Regarding `COc1ccc(-c2cc(C(F)(F)F)n(C)c2-c2ccc(OC)cc2)cc1` [Example 1, 4,5-Bis(4-methoxyphenyl)-1-methyl-2-trifluoromethyl-1H-pyrrole], the ED50 turned out to be 1.25 mg/kg in assay [1] (setting [3]) and 16 mg/kg in assay [2] (setting [4]).
